Where a name gives a salt, the structure may show the parent alone.

In the first experiment the target is T1, MPO (purified from human polynuclear leukocytes) (Homo sapiens, UniProt P05164).
T1 construct: purified from human polynuclear leukocytes; purchased Calbiochem/EMD Biosciences; host or cells: human polynuclear leukocytes (natural source)
T1 sequence (P05164 279-745 limits assumed): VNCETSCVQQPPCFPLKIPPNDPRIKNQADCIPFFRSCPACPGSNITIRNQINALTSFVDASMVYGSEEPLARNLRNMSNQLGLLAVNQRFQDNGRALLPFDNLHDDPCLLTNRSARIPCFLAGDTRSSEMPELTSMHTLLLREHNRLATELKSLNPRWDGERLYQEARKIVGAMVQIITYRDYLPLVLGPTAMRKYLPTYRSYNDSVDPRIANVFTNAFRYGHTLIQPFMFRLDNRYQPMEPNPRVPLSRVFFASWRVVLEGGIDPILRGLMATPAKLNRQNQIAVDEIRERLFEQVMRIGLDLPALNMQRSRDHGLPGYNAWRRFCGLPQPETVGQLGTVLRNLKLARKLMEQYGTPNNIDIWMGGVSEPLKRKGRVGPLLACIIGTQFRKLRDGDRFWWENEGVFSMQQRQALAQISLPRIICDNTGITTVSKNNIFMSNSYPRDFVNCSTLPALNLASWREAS
T1 sequence (P05164 165-273 limits assumed): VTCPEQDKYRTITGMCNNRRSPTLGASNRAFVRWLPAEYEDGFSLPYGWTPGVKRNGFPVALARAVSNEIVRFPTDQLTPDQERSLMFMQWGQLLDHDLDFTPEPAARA
Nature of the experiment: MPO Amplex Red Activity Assay. It is filed as biochemical. As to conditions: Table 1, 2 μM H2O2, pH 7.4. As for the experimental part: MPO Amplex Red Activity Assay.
MPO peroxidase activity was measured by monitoring the formation of resorufin generated from the oxidation of Amplex Red (10-Acetyl-3,7-dihydroxyphenoxazine) (Invitrogen, Carlsbad, Calif.) by MPO (Gomes, Fernandes et al. 2005). Assay mixtures (100 μL total volume) contained 50 mM NaPi pH 7.4, 150 mM NaCl, 1 mM DTPA (diethylenetriaminepentaacetic acid), 2% DMSO, 2 μM H2O2, 30 μM Amplex Red and the reaction was initiated by the addition of […] (purified from human polynuclear leukocytes and purchased from Calbiochem/EMD Biosciences, Gibbstown, N.J.). All assays were performed in 96-well, half-area, black, nonbinding surface, polystyrene plates (Corning) and the production of resorufin (excitation 530 nm, emission 580 nm) was monitored every 20 sec on a Spectramax M2 Microplate Spectrophotometer (Molecular Devices, Palo Alto, Calif.) equipped with Softmax Pro software (Molecular Devices, Palo Alto, Calif.). Reactions to determine the background reaction rate consisted of all assay components and 4 μL of 500 unit/mL bovine catalase (Sigma) in 50 mM KPi pH 7.0. The background rate was subtracted from each reaction progress curve. All data was analyzed using non-linear regression analysis in Microsoft Excel and Kaleidagraph (Synergy Software).
To determine inhibitor potency (kinact/KI) against MPO, the first 600 sec of the reaction progress curves were fit to equation 1, where Vo is the initial rate in RFU/sec and t is time in seconds, to obtain the first order rate constant for enzyme inactivation (kobs) at each inhibitor concentration.
[formula] Equation 1 is a variation of the standard equation for slow binding inhibition where the steady state velocity (Vs) is set to zero. Each kobs value was corrected for auto-inactivation of the enzyme by subtracting the kobs value for the uninhibited reaction. The corrected kobs values were then plotted versus inhibitor concentration ([I]) and fit to equation 2
[formula] where kinact is the maximal rate of inactivation and KI is the inhibitor concentration that yields half the rate of maximal inactivation (Copeland 2005).
Table 1 and (1A) below provides the myeloperoxidase inhibitory activity for the Examples below in accordance with the above-described assay.
Consider `COCCn1c(-c2ccc(OC)c3nc(C)ccc23)cc(=O)[nH]c1=S` [Example 345, 1-(2-methoxyethyl)-6-(8-methoxy-2-methylquinolin-5-yl)-2-thioxo-2,3-dihydropyrimidin-4(1H)-one], for which the “MPO kinact/Ki” value is 946 1/s per M.

Take `COCCn1c(-c2cc(C)ccc2OC)cc(=O)[nH]c1=S` [Example 312, 1-(2-methoxyethyl)-6-(2-methoxy-5-methylphenyl)-2-thioxo-2,3-dihydropyrimidin-4(1H)-one]: the “MPO kinact/Ki” value is on record as 17100 1/s per M. Regarding `COc1cc(OC)c(-c2cc(=O)[nH]c(=S)n2CCCN)cc1Cl` [Example 129, 1-(3-aminopropyl)-6-(5-chloro-2,4-dimethoxyphenyl)-2-thioxo-2,3-dihydropyrimidin-4(1H)-one hydrochloride], the “MPO kinact/Ki” value is recorded as 18700 1/s per M. For the compound `COCCn1c(-c2cc(OC)cc(OC)c2)cc(=O)[nH]c1=S` [Example 330, 6-(3,5-dimethoxyphenyl)-1-(2-methoxyethyl)-2-thioxo-2,3-dihydropyrimidin-4(1H)-one], the “MPO kinact/Ki” value is 5210 1/s per M. The same measure, in the same setting: for `COc1ccc(-c2cc(=O)[nH]c(=S)n2CCCN)cc1OC` [Example 82, 1-(3-aminopropyl)-6-(3,4-dimethoxyphenyl)-2-thioxo-2,3-dihydropyrimidin-4(1H)-one hydrochloride] the value was 3390 1/s per M; for `COc1ccc(-c2cc(=O)[nH]c(=S)n2Cc2ccn[nH]2)c(OC)c1` [Example 207, 6-(2,4-dimethoxyphenyl)-1-(1H-pyrazol-5-ylmethyl)-2-thioxo-2,3-dihydropyrimidin-4(1H)-one], 2400 1/s per M. On to `NCCCn1c(-c2ccc3c(c2)OCCO3)cc(=O)[nH]c1=S` [Example 76, 1-(3-aminopropyl)-6-(2,3-dihydro-1,4-benzodioxin-6-yl)-2-thioxo-2,3-dihydropyrimidin-4(1H)-one hydrochloride], for which the “MPO kinact/Ki” value was 4190 1/s per M. Still for that read-out and setting: for `COCCn1c(-c2ccc(S(=O)(=O)N(C)C)cc2)cc(=O)[nH]c1=S` [Example 347, 4-[3-(2-methoxyethyl)-6-oxo-2-thioxo-1,2,3,6-tetrahydropyrimidin-4-yl]-N,N-dimethylbenzenesulfonamide] the value was 378 1/s per M; for `COc1ccc(Cl)cc1-c1cc(=O)[nH]c(=S)n1CCO` [Example 64, 6-(5-chloro-2-methoxyphenyl)-1-(2-hydroxyethyl)-2-thioxo-2,3-dihydropyrimidin-4(1H)-one], 22500 1/s per M. On to `NCCCn1c(-c2ccccc2-n2nccn2)cc(=O)[nH]c1=S` [Example 98, 1-(3-aminopropyl)-2-thioxo-6-[2-(2H-1,2,3-triazol-2-yl)phenyl]-2,3-dihydropyrimidin-4(1H)-one hydrochloride], for which the “MPO kinact/Ki” value is 1870 1/s per M. `COCCn1c(-c2cc3ccccc3o2)cc(=O)[nH]c1=S` [Example 306, 6-(1-benzofuran-2-yl)-1-(2-methoxyethyl)-2-thioxo-2,3-dihydropyrimidin-4(1H)-one]: the “MPO kinact/Ki” value is 6740 1/s per M. On the same count and under the same terms, the same measure for `NCCCn1c(-c2ccccc2OCCO)cc(=O)[nH]c1=S` [Example 88, 1-(3-aminopropyl)-6-[2-(2-hydroxyethoxy)phenyl]-2-thioxo-2,3-dihydropyrimidin-4(1H)-one hydrochloride]: 898 1/s per M. As to `COCCn1c(-c2cc(OC)c(C)cc2OC)cc(=O)[nH]c1=S` [Example 275, 6-(2,5-dimethoxy-4-methylphenyl)-1-(2-methoxyethyl)-2-thioxo-2,3-dihydropyrimidin-4(1H)-one], the “MPO kinact/Ki” value is on record as 4730 1/s per M. In the case of `COc1ccc(Cl)cc1-c1cc(=O)[nH]c(=S)n1C[C@@H](O)CN` [Example 113, 1-[(2S)-3-amino-2-hydroxypropyl]-6-(5-chloro-2-methoxyphenyl)-2-thioxo-2,3-dihydropyrimidin-4(1H)-one trifluoroacetate], the “MPO kinact/Ki” value was 25900 1/s per M. `O=c1cc(-c2csc3ccccc23)n(CCO)c(=S)[nH]1` [Example 39, 6-(1-benzothien-3-yl)-1-(2-hydroxyethyl)-2-thioxo-2,3-dihydropyrimidin-4(1H)-one]: the “MPO kinact/Ki” value is recorded as 4520 1/s per M. Turning to `NC(=O)Cn1c(-c2csc3ccccc23)cc(=O)[nH]c1=S` [Example 68, 2-[6-(1-benzothien-3-yl)-4-oxo-2-thioxo-3,4-dihydropyrimidin-1(2H)-yl]acetamide], the “MPO kinact/Ki” value was 1160 1/s per M. For the compound `COc1ccc(F)cc1-c1cc(=O)[nH]c(=S)n1CCNC(=O)CN` [Example 127, N-{2-[6-(5-fluoro-2-methoxyphenyl)-4-oxo-2-thioxo-3,4-dihydropyrimidin-1(2H)-yl]ethyl} glycinamide hydrochloride], the “MPO kinact/Ki” value was 5810 1/s per M. As for `COc1cccc(-c2cc(=O)[nH]c(=S)n2CCCN)c1` [Example 265, 1-(3-aminopropyl)-6-(3-methoxyphenyl)-2-thioxo-2,3-dihydropyrimidin-4(1H)-one hydrochloride], the “MPO kinact/Ki” value is given as 3730 1/s per M. Consider `COCCn1c(-c2cccc3ccoc23)cc(=O)[nH]c1=S` [Example 307, 6-(1-benzofuran-7-yl)-1-(2-methoxyethyl)-2-thioxo-2,3-dihydropyrimidin-4(1H)-one], for which the “MPO kinact/Ki” value is given as 14400 1/s per M. Take `COCCn1c(-c2ccnc(OC)c2)cc(=O)[nH]c1=S` [Example 297, 1-(2-methoxyethyl)-6-(2-methoxypyridin-4-yl)-2-thioxo-2,3-dihydropyrimidin-4(1H)-one]: the “MPO kinact/Ki” value is given as 762 1/s per M. The same measure, in the same setting: for `COc1ccccc1-c1cc(=O)[nH]c(=S)n1CCO` [Example 156, 1-(2-hydroxyethyl)-6-(2-methoxyphenyl)-2-thioxo-2,3-dihydropyrimidin-4(1H)-one] the value was 16800 1/s per M; for `COc1ccc(F)cc1-c1cc(=O)[nH]c(=S)n1CCO` [Example 28, 6-(5-fluoro-2-methoxyphenyl)-1-(2-hydroxyethyl)-2-thioxo-2,3-dihydropyrimidin-4(1H)-one], 13700 1/s per M. `COc1ccc(-c2cc(=O)[nH]c(=S)n2C[C@@H](O)CO)c(OC)c1` [Example 204, 1-[(2R)-2,3-dihydroxypropyl]-6-(2,4-dimethoxyphenyl)-2-thioxo-2,3-dihydropyrimidin-4(1H)-one]: the “MPO kinact/Ki” value is on record as 3900 1/s per M. For `COc1ccc(-c2cc(=O)[nH]c(=S)n2CCCCN)c(OC)c1` [Example 191, 1-(4-aminobutyl)-6-(2,4-dimethoxyphenyl)-2-thioxo-2,3-dihydropyrimidin-4(1H)-one hydrochloride], the “MPO kinact/Ki” value is 14100 1/s per M.

Staying with this experiment, now noted: Table 1A, 2 μM H2O2, pH 7.4.
As for `COc1ccc(-c2cc(=O)[nH]c(=S)n2CC(=O)NCCCN)c(OC)c1` [Example 442, N-(3-aminopropyl)-2-[6-(2,4-dimethoxyphenyl)-4-oxo-2-thioxo-3,4-dihydropyrimidin-1(2H)-yl]acetamide], the “MPO kinact/Ki” value is recorded as 12300 1/s per M. On the same count and under the same terms, the same measure for `COc1ccc(-c2cc(=O)[nH]c(=S)n2CC(=O)N2CC(N)C2)c(OC)c1` [Example 431, 1-[2-(3-aminoazetidin-1-yl)-2-oxoethyl]-6-(2,4-dimethoxyphenyl)-2-thioxo-2,3-dihydropyrimidin-4(1H)-one]: 3440 1/s per M. Turning to `COc1ccc(-c2cc(=O)[nH]c(=S)n2CC(=O)N[C@H](C)CN)c(OC)c1` [Example 401, N-[(2R)-1-aminopropan-2-yl]-2-[6-(2,4-dimethoxyphenyl)-4-oxo-2-thioxo-3,4-dihydropyrimidin-1(2H)-yl]acetamide], the “MPO kinact/Ki” value is given as 4060 1/s per M. `COc1ccc(OCCO)c(-c2cc(=O)[nH]c(=S)n2CC(N)=O)c1` [Example 380, 2-{6-[2-(2-hydroxyethoxy)-5-methoxyphenyl]-4-oxo-2-thioxo-3,4-dihydropyrimidin-1(2H)-yl}acetamide]: the “MPO kinact/Ki” value is given as 4470 1/s per M. Consider `COc1ccc(-c2cc(=O)[nH]c(=S)n2CC(=O)NCCO)c(OC)c1` [Example 385, 2-[6-(2,4-dimethoxyphenyl)-4-oxo-2-thioxo-3,4-dihydropyrimidin-1(2H)-yl]-N-(2-hydroxyethyl)acetamide], for which the “MPO kinact/Ki” value was 3530 1/s per M. `COc1ccc(F)cc1-c1cc(=O)[nH]c(=S)n1CCCNC(=N)NC#N` [Example 447, 1-cyano-3-{3-[6-(5-fluoro-2-methoxyphenyl)-4-oxo-2-thioxo-3,4-dihydropyrimidin-1(2H)-yl]propyl}guanidine]: the “MPO kinact/Ki” value was 17200 1/s per M. As to `COc1ccc(OC)c(-c2cc(=O)[nH]c(=S)n2CCNC(=O)CN)c1` [Example 352, N-{2-[6-(2,5-dimethoxyphenyl)-4-oxo-2-thioxo-3,4-dihydropyrimidin-1(2H)-yl]ethyl}glycinamide], the “MPO kinact/Ki” value was 6720 1/s per M.

The values are drawn from patent publication US9399626B2, “2-thiopyrimidinones” (Pfizer Inc., priority 2011, dated 2016).
